The target of one assay is SARS-CoV-2 3CL protease (Severe acute respiratory syndrome coronavirus 2, UniProt P0DTD1). Put plainly: biochemical. The settings on record: 50% SARS-CoV-2 3CL protease inhibitory concentration, read-out: IC50.
In another assay the test system is SARS-CoV-2. The experiment in a line: microbe, parasite or virus in culture. The settings on record: Severe acute respiratory syndrome coronavirus 2, VeroE6/TMPRSS2, 72 h, 50% SARS-CoV-2 infected cell death inhibitory concentration, VeroE6/TMPRSS2 cells, 3 days culture. Format: cell-based.

Like-named read-outs stand apart in the source and are kept apart here.

Turning to `Cc1cncc(-n2c(=O)nc(Nc3cc4cn(C)nc4cc3Cl)n(Cc3cc(C#N)ccc3C)c2=O)c1` [II-0596], the IC50 (commonly the concentration that inhibits the measured activity by half) at SARS-CoV-2 3CL protease (RapidFire MS) was 1.6 nM. Besides, in the assay on SARS-CoV-2 (CellTiter-Glo 2.0), the EC50 (usually the concentration giving half of the maximal effect) was 62 nM.

Regarding `CNc1cncc(-n2c(=O)nc(Nc3cc4cn(C)nc4cc3Cl)n(Cc3cc(F)c(F)c(Cl)c3)c2=O)c1` [II-0601], the IC50 at SARS-CoV-2 3CL protease (given as class symbols) is less than 100 nM. For the same compound, in the assay on SARS-CoV-2 (class symbols), the EC50 was less than 1000 nM.

`Cc1cncc(-n2c(=O)nc(Nc3ccc4nn(C)c(C)c4c3)n(Cc3ccc(F)c(C#N)c3)c2=O)c1` [II-0264]: the IC50 on SARS-CoV-2 3CL protease (given as class symbols) was less than 100 nM. Besides, in the assay with SARS-CoV-2 (class symbols), the EC50 lay within 1000 to 10000 nM.

Take `Cc1cncc(-n2c(=O)nc(Nc3ccc4nn(C)cc4c3)n(Cc3ccc(F)c(Cl)c3)c2=O)c1` [II-0469]: the IC50 on SARS-CoV-2 3CL protease (given as class symbols) is less than 100 nM. In the assay with SARS-CoV-2 (class symbols), the EC50 was less than 1000 nM.

`O=c1[nH]cccc1Cn1c(=O)nc(Nc2ccc(OC3CC3)cc2Cl)n(Cc2cc(F)c(F)c(F)c2)c1=O` [Compound I-0392]: the IC50 on SARS-CoV-2 3CL protease (given as class symbols) is less than 100 nM. Besides, the EC50 in the assay on SARS-CoV-2 (class symbols) fell in the range of 1000 to 10000 nM.

As for `Cn1cc2cc(Nc3nc(=O)n(-c4cncc(Cl)c4)c(=O)n3Cc3cc(F)c(F)cc3F)ccc2n1` [II-0288], the IC50 on SARS-CoV-2 3CL protease (RapidFire MS) stood at 99 nM. This compound displayed an EC50 in the assay with SARS-CoV-2 (CellTiter-Glo 2.0) of 2400 nM.

Take `CNc1nc2cc(F)c(Nc3nc(=O)n(-c4cncc(C)c4)c(=O)n3Cc3ccc(F)c(C#N)c3)cc2s1` [II-0283]: the IC50 at SARS-CoV-2 3CL protease (given as class symbols) is less than 100 nM. This compound also came in with an EC50 in the assay on SARS-CoV-2 (class symbols) of less than 1000 nM.

In the case of `Cn1cnc(Cn2c(=O)nc(Nc3cc4cn(C)nc4cc3Cl)n(Cc3cccc4ccccc34)c2=O)n1` [II-0223], the IC50 on SARS-CoV-2 3CL protease (RapidFire MS) was determined as 780 nM. This compound also displayed an EC50 in the assay with SARS-CoV-2 (CellTiter-Glo 2.0) of 22500 nM.

For `COc1ccc(Nc2nc(=O)n(-c3cncc4ccccc34)c(=O)n2Cc2ccc(F)c(C#N)c2)cc1` [Compound I-0377], the IC50 on SARS-CoV-2 3CL protease (RapidFire MS) is 8 nM. The same compound had an EC50 in the assay on SARS-CoV-2 (CellTiter-Glo 2.0) of 72.9 nM.

Take `Cn1cnc(Cn2c(=O)nc(Nc3cc4c(cc3Cl)OCC4)n(Cc3cc(F)c(F)c(F)c3)c2=O)n1` [Compound I-0482]: the IC50 on SARS-CoV-2 3CL protease (RapidFire MS) was 15 nM. For the same compound, in the assay with SARS-CoV-2 (CellTiter-Glo 2.0), a half-maximal effect (EC50) was put at 385 nM.

Turning to `Cc1cc(F)c(C#N)cc1Cn1c(Nc2cc3cn(C)nc3cc2Cl)nc(=O)n(-c2cncc(N)c2)c1=O` [II-0380], the IC50 on SARS-CoV-2 3CL protease (given as class symbols) was less than 100 nM. This compound also gave an EC50 with SARS-CoV-2 (class symbols) of 1000 to 10000 nM.

Take `COc1ccc(Nc2nc(=O)n(Cc3cc4c([nH]c3=O)CCC4)c(=O)n2Cc2cc(F)c(F)c(F)c2)cc1` [II-0343]: on SARS-CoV-2 3CL protease (RapidFire MS), the IC50 came out at 310 nM. Further, in the assay on SARS-CoV-2 (CellTiter-Glo 2.0), a half-maximal effect (EC50) was put at 4140 nM.

For `Cc1cncc(-n2c(=O)nc(Nc3cc4cn(C)nc4cc3Cl)n(Cc3cc(C#N)ccc3[N+](=O)[O-])c2=O)c1` [II-0580], on SARS-CoV-2 3CL protease (given as class symbols), the IC50 is less than 100 nM. In the assay on SARS-CoV-2 (class symbols), this compound returned an EC50 of less than 1000 nM.

In the case of `Cc1cncc(-n2c(=O)nc(Nc3ccc4nn(CC(F)(F)F)cc4c3)n(Cc3cc(C#N)ccc3C)c2=O)c1` [II-0299], the IC50 on SARS-CoV-2 3CL protease (RapidFire MS) was 3.3 nM. The compound further came in with an EC50 in the assay with SARS-CoV-2 (CellTiter-Glo 2.0) of 202 nM.

Turning to `CC[C@@H](Nc1nc(=O)n(Cc2ccc[nH]c2=O)c(=O)n1Cc1cc(F)c(F)c(F)c1)C(F)(F)F` [II-0370], at SARS-CoV-2 3CL protease (RapidFire MS), the IC50 came to 520 nM. It took 28900 nM to reach a half-maximal effect with SARS-CoV-2 (CellTiter-Glo 2.0) (EC50).

For `O=c1[nH]c2sccc2cc1Cn1c(=O)nc(Nc2cc3cn(CCO)nc3cc2Cl)n(Cc2cc(F)c(F)c(F)c2)c1=O` [II-0031], the IC50 on SARS-CoV-2 3CL protease (given as class symbols) was less than 100 nM. For the same compound, the EC50 with SARS-CoV-2 (class symbols) lay in the range of 1000 to 10000 nM.

With `Cn1cnc(Cn2c(=O)nc(Nc3cc4cn(C)nc4cc3Cl)n(Cc3cccc(F)c3Cl)c2=O)n1` [II-0214], the IC50 at SARS-CoV-2 3CL protease (given as class symbols) was less than 100 nM. In the assay on SARS-CoV-2 (class symbols), this compound showed an EC50 of 1000 to 10000 nM.

In the case of `Cc1cncc(-n2c(=O)nc(Nc3cc4cn(C)nc4cc3Cl)n(Cc3cccc(F)c3F)c2=O)c1` [II-0187], at SARS-CoV-2 3CL protease (given as class symbols), the IC50 is less than 100 nM. For the same compound, the EC50 with SARS-CoV-2 (class symbols) is less than 1000 nM.

Regarding `Cc1nc2cc(Cn3c(=O)nc(Nc4ccc5c(c4)CCO5)n(Cc4cc(F)c(F)c(F)c4)c3=O)c(=O)[nH]c2s1` [II-0341], the IC50 at SARS-CoV-2 3CL protease (given as class symbols) was less than 100 nM. Further, in the assay on SARS-CoV-2 (class symbols), the EC50 is 1000 to 10000 nM.

Take `COc1ccc(Nc2nc(=O)n(Cc3cc(C(F)(F)F)c[nH]c3=O)c(=O)n2Cc2cc(F)c(F)c(F)c2)cc1` [Compound I-0307]: the IC50 at SARS-CoV-2 3CL protease (given as class symbols) was 100 to 1000 nM; on SARS-CoV-2 3CL protease (RapidFire MS), 440 nM. Also, in the assay on SARS-CoV-2 (class symbols), the EC50 is less than 1000 nM.

As to `Cc1cncc(-n2c(=O)nc(Nc3cc4cn(C)nc4cc3F)n(Cc3cc(C#N)ccc3Cl)c2=O)c1` [II-0364], the IC50 at SARS-CoV-2 3CL protease (given as class symbols) is less than 100 nM. The same compound returned an EC50 in the assay on SARS-CoV-2 (class symbols) of less than 1000 nM.

The values above are taken from patent US12559474B2, “Triazine derivatives having virus replication inhibitory activity and pharmaceutical composition comprising the same” (priority 2021, dated 2026).
